Test results from patent US6117840A, “CS-1 peptidomimetics, compositions and methods of using the same” (Cytel Corporation, priority 1997, dated 2000).
Where two headings read alike, the source gives them in different places. Square brackets hold non-standard residues; d marks the D form. Peptide text beside a SMILES is read from it. * marks the point of attachment. Phe(4-NO2) = N[C@@H](Cc1ccc([N+](=O)[O-])cc1)C(=O)O; hPhe = N[C@@H](CCc1ccccc1)C(=O)O; Cha = N[C@@H](CC1CCCCC1)C(=O)O; Phg = N[C@H](C(=O)O)c1ccccc1; PhAc = O=C(Cc1ccccc1)*; Inp = O=C(O)C1CCNCC1; Bz = O=C(c1ccccc1)*

Target: T1, VLA-4 (Homo sapiens, UniProt P05556+P13612)
T1 construct: host or cells: Jurkat (human T lymphoblastic line)
T1 sequence (P13612 34-1032): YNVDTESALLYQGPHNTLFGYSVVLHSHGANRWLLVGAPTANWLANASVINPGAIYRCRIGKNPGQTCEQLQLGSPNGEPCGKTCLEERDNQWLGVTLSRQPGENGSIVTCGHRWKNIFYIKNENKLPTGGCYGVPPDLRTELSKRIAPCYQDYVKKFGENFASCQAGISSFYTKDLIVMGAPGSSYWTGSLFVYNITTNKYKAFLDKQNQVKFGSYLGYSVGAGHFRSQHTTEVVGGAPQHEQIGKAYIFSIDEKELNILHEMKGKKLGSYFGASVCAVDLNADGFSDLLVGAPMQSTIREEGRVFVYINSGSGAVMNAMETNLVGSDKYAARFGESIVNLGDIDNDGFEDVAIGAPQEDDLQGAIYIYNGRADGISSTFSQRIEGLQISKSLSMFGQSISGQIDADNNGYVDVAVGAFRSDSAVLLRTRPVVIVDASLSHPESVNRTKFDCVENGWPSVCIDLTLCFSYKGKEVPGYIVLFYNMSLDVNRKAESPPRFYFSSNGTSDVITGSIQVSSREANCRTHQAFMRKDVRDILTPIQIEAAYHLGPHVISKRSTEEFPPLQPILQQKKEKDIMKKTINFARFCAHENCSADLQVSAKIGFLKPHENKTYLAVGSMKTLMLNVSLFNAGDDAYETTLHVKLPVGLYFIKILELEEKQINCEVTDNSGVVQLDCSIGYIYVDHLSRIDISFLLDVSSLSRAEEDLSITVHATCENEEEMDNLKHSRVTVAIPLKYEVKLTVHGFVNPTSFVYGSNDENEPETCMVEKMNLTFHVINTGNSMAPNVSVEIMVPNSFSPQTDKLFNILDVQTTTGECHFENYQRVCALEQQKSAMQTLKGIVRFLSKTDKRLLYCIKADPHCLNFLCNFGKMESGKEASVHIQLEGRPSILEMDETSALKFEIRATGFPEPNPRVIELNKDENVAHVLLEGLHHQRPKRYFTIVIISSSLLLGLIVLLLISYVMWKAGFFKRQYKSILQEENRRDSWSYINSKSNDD
T1 sequence (P05556 21-798): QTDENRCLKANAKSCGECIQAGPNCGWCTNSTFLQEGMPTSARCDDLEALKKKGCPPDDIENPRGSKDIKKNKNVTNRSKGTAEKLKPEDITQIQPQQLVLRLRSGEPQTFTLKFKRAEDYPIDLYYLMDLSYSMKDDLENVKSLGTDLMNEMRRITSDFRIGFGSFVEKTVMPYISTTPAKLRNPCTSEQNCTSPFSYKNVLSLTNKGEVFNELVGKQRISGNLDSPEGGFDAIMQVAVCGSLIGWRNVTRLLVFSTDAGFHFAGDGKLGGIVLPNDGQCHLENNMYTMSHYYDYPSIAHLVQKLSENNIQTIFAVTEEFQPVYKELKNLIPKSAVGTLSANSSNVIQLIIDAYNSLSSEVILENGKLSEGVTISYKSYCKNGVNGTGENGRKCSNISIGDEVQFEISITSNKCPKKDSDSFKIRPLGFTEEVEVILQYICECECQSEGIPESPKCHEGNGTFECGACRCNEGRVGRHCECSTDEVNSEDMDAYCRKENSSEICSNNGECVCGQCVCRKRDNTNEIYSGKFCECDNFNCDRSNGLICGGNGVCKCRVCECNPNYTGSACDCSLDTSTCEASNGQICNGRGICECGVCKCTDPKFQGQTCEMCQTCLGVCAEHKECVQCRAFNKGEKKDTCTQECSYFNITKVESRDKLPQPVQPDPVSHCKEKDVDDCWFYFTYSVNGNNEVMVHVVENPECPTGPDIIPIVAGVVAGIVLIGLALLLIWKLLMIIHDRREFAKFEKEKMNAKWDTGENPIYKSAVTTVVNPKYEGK
Format: cell-based
Description: Binding inhibition is measured here as a concentration of peptide that inhibits one-half the binding between a standard number of Jurkat cells and a standard amount of CS-1 peptide bound to the surface of a microtiter plate well. Those concentrations are conveniently expressed as IC50 values, smaller numbers indicating a lower concentration required to inhibit 50 percent binding and therefore greater potency. Further specifics of this assay are provided hereinafter.
Jurkat cells (ATCC TIB 152), a human T lymphoblastic line, labeled with ^51 chromium were used to assay in vitro binding inhibition provided by various peptides discussed herein.
The plates were prepared as follows: The 25-mer CS1 peptide (SEQ ID NO:1) dissolved at 0.5-1 μg/ml in a buffer of 0.1M NaHCO3 at pH 9.5 tha also contained 10 μg/ml of bovine serum albumin (BSA) or a conjugate o the CS1 peptide linked to ovalbumin (CS1-OVA) dissolved at 1-2.5 μg/ml in the same buffer was used as the substrate. Each well of the microtiter plates was coated with 50 μl of substrate or buffer alone for controls The wells were permitted to dry out completely and were then rinsed twice with PBS at pH 7.4. Nonspecific binding sites of each well were then blocked using 200 μl per well of RPMI/1 percent BSA for two hours at room temperature. Both solid phaseaffixed substrates provided similar results.
Jurkat cells (3-5×10^6 cells) were placed into a 15 ml Falcon.TM roundbottom tube with a cap. The tube was centrifuged, and the extra medium was then removed.
Two hundred microliters of a ^51 Cr labeling solution were added to th centrifuged cells and maintained in contact with the cells for 90-120 minutes in a warm room. This procedure typically provides about 50,000-100,000 cpm/well with about 80-100 percent cell viability. Longer contact times provide a greater amount of labeling but lower cell viability.
The labeled cells are washed with (i) complete medium, (ii) 1 mM EDTA/PBS and then (iii) RPMI/1 percent BSA free of serum components. The cells are centrifuged after each washing. The cells are finally resuspended in serumfree RPMI/1 percent BSA at a concentration of 1×10^6 viabl cells/ml, which provides a concentration that is diluted by onehalf in th assay.
Inhibitor peptides are prepared as stock solutions at 20 mg/ml in DMSO in 1.5 ml cryogenic screwcap vials, and were stored at -70° C. Using Flow™ roundbottom or Vbottom microtiter plates, the inhibitor peptides were prepared at twice the assay concentration in RPMI/1 percent BSA at 6 μl/well.
Four initial dilutions were typically used.
The ^51 Crlabeled cells (1×10^6 cells at 60 μl/well) were then admixed with the diluted peptide solutions. The admixtures were maintained at room temperature (about 22° C.) for 30 minutes.
One hundred microliters of each inhibitor peptide/cell admixture were transferred to the substratecoated wells. This was done in triplicate for each dilution. The resulting plates were incubated for 30 minutes at 37° C. and then washed gently three times with RPMI/1 percent BSA at 200 μl/well. Binding was observed microscopically, particularly after the second wash.
The bound cells were then lysed by the addition of a 0.5 percent solution of sodium dodecylsulfate in water at 100 μl/well. The resulting solutions were then processed for counting and calculation of IC50 values following usual procedures. Appropriate positive and negative controls were used with each plate so that the results of separate assays could be normalized and compared.

[1] = relative to standard peptide SEQ ID NO:3 (=1), normalized IC50, about one-tenth or less of SEQ ID NO:3 assigned zero

SMILES	RELATIVE POTENCY (inhibition of VLA-4 binding CS-1) [1]	further results
CC(C)C[C@H](NC(=O)Cc1ccccc1)C(=O)N[C@@H](CC(=O)O)C(=O)N[C@@H](Cc1ccccc1)C(=O)N1CCC[C@H]1C(=O)NCCN(CCN(CCN(CCNC(=O)[C@@H]1CCCN1C(=O)[C@H](Cc1ccccc1)NC(=O)[C@H](CC(=O)O)NC(=O)[C@H](CC(C)C)NC(=O)Cc1ccccc1)C(=O)[C@@H]1CCCN1C(=O)[C@H](Cc1ccccc1)NC(=O)[C@H](CC(=O)O)NC(=O)[C@H](CC(C)C)NC(=O)Cc1ccccc1)C(=O)[C@@H]1CCCN1C(=O)[C@H](Cc1ccccc1)NC(=O)[C@H](CC(=O)O)NC(=O)[C@H](CC(C)C)NC(=O)Cc1ccccc1)C(=O)[C@@H]1CCCN1C(=O)[C@H](Cc1ccccc1)NC(=O)[C@H](CC(=O)O)NC(=O)[C@H](CC(C)C)NC(=O)Cc1ccccc1	–	VLA-4 binding inhibition, times better than the standard 10-mer peptide of SEQ ID NO:3: about 210 times
CC(C)C[C@H](NC(=O)Cc1ccccc1)C(=O)N[C@@H](CC(=O)O)C(=O)N[C@@H](Cc1ccccc1)C(=O)N1CCCC1CO (some centres unmarked)	184	–
CC(C)C[C@H](NC(=O)Cc1ccccc1)C(=O)N[C@@H](CC(=O)O)C(=O)N[C@@H](Cc1ccccc1)C(=O)N1CC(O)C(O)C1 (some centres unmarked)	194	–
CC(C)C[C@H](NC(=O)Cc1ccccc1)C(=O)N[C@@H](CC(=O)O)C(=O)N[C@@H](Cc1ccccc1)C(=O)N1CCN(CCOCCO)CC1	505	–
CC(C)C[C@H](NC(=O)Cc1ccccc1)C(=O)N[C@@H](CC(=O)O)C(=O)N[C@@H](Cc1ccccc1)C(=O)N1CCN(CC(N)=O)CC1	319	–
CC(C)C[C@H](NC(=O)Cc1ccccc1)C(=O)N[C@@H](CC(=O)O)C(=O)N[C@@H](Cc1ccccc1)C(=O)N1CCN(CC(=O)O)CC1	2579	–
CC(C)C[C@H](NC(=O)Cc1ccccc1)C(=O)N[C@@H](CC(=O)O)C(=O)N[C@@H](Cc1ccccc1)C(=O)N1CCS(=O)(=O)CC1	1060	–
CC(C)C[C@H](NC(=O)Cc1ccccc1)C(=O)N[C@@H](CC(=O)O)C(=O)N[C@@H](Cc1ccccc1)C(=O)N1CCC(O)CC1	603	–
CC(C)C[C@H](NC(=O)Cc1ccccc1)C(=O)N[C@@H](CC(=O)O)C(=O)N[C@@H](Cc1ccccc1)C(=O)N1CC[N+](C)(C)CC1	313	–
CCCCCCCCCC(=O)OC1CCN(C(=O)[C@H](Cc2ccccc2)NC(=O)[C@H](CC(=O)O)NC(=O)[C@H](CC(C)C)NC(=O)Cc2ccccc2)CC1	< 1	–
CCCCCCCCCCCCCCCCCC(=O)OC1CCN(C(=O)[C@H](Cc2ccccc2)NC(=O)[C@H](CC(=O)O)NC(=O)[C@H](CC(C)C)NC(=O)Cc2ccccc2)CC1	< 1	–
CC(C)C[C@H](NC(=O)Cc1ccccc1)C(=O)N[C@@H](CC(=O)O)C(=O)N[C@@H](Cc1ccccc1)C(=O)N1CCSCC1	493	–
CC(C)C[C@H](NC(=O)Cc1ccccc1)C(=O)N[C@@H](CC(=O)O)C(=O)N[C@H]1Cc2ccccc2[C@H]2CCCCN2C1=O	50	–
CC(C)C[C@H](NC(=O)Cc1ccccc1)C(=O)N[C@@H](CC(=O)O)C(=O)N[C@@H]1CCCCNC1=O	17	–
CC(C)C[C@H](NC(=O)Cc1ccccc1)C(=O)N[C@@H](CC(=O)O)C(=O)NC1Cc2ccccc2N(CCN2CCOCC2)C1=O (some centres unmarked)	20	–
CC(C)C[C@H](NC(=O)Cc1ccccc1)C(=O)N[C@@H](CC(=O)O)C(=O)NC1CCCCN(CC(N)=O)C1=O (some centres unmarked)	97	–
CC(C)C[C@H](NC(=O)Cc1ccccc1)C(=O)N[C@@H](CC(=O)O)C(=O)NC1Cc2ccccc2N(CC(C)C)C1=O (some centres unmarked)	6	–
CC(C)C[C@H](NC(=O)Cc1ccccc1)C(=O)N[C@@H](CC(=O)O)C(=O)NC(Cc1ccccc1)Cc1ccccc1	0	–

SMILES	RELATIVE POTENCY (inhibition of VLA-4 binding CS-1) [1]	further results
CC(C)C[C@H](NC(=O)Cc1ccccc1)C(=O)N[C@@H](CC(=O)O)C(=O)NCCN1CCOCC1	13	–
CC(C)C[C@H](NC(=O)Cc1ccccc1)C(=O)N[C@@H](CC(=O)O)C(=O)NC1Cc2ccccc2NC1=O (some centres unmarked)	31	–
CC(C)C[C@H](NC(=O)Cc1ccccc1)C(=O)N[C@@H](CC(=O)O)C(=O)NC1Cc2ccccc2N(CC(N)=O)C1=O (some centres unmarked)	45	–
CC(C)C[C@H](NC(=O)Cc1ccccc1)C(=O)N[C@@H](CC(=O)O)C(=O)NC1CCCCNC1=O (some centres unmarked)	27	–
CC(C)C[C@H](NC(=O)Cc1ccccc1)C(=O)N[C@@H](CC(=O)O)C(=O)NN(Cc1ccccc1)C(=O)C1CCCC1	1	–
CC(C)C[C@H](NC(=O)Cc1ccccc1)C(=O)N[C@@H](CC(=O)O)C(=O)NN(Cc1ccccc1)Cc1ccccc1	0	–
CC(C)C[C@H](NC(=O)Cc1ccccc1)C(=O)N[C@@H](CC(=O)O)C(=O)NC1CCN(C2CCCCC2)C1=O (some centres unmarked)	7	–
NC(=O)[C@H]1CCCN1C(=O)[C@H](Cc1ccccc1)NC(=O)[C@H](CC(=O)O)NC(=O)[C@H](CC1CCCCC1)NC(=O)c1ccccc1 (Bz-[Cha]DF[dP]-NH2)	17	–
CC(C)[C@H](NC(=O)[C@H](CC(=O)O)NC(=O)[C@H](CC1CCCCC1)NC(=O)c1ccccc1)C(=O)N1CCC[C@@H]1C(N)=O (Bz-[Cha]DV[dP]-NH2)	11	–
CC(C)C[C@H](NC(=O)Cc1ccccc1)C(=O)N[C@@H](CC(=O)O)C(=O)N[C@@H](Cc1ccccc1)C(=O)N1CCC(C(N)=O)CC1 (PhAc-LDF[Inp]-NH2)	933	–
CC(C)C[C@H](NC(=O)Cc1ccccc1)C(=O)N[C@@H](CC(=O)O)C(=O)N[C@@H](Cc1ccccc1)C(=O)N1CCC(C(=O)O)CC1 (PhAc-LDF[Inp]-OH)	828	–
CC(C)C[C@H](NC(=O)Cc1ccccc1)C(=O)N[C@@H](CC(=O)O)C(=O)N[C@@H](Cc1ccc([N+](=O)[O-])cc1)C(=O)N1CCC[C@@H]1C(N)=O (PhAc-LD[Phe(4-NO2)][dP]-NH2)	40	–
CC(C)C[C@H](NC(=O)Cc1ccccc1)C(=O)N[C@@H](CC(=O)O)C(=O)N[C@H](C(=O)N1CCC[C@@H]1C(N)=O)c1ccccc1 (PhAc-LD[Phg][dP]-NH2)	61	–
CC(C)C[C@H](NC(=O)Cc1ccccc1)C(=O)N[C@@H](CC(=O)O)C(=O)N[C@@H](CCc1ccccc1)C(=O)N1CCC[C@@H]1C(N)=O (PhAc-LD[hPhe][dP]-NH2)	94	–
NC(=O)[C@H]1CCCN1C(=O)[C@H](Cc1ccccc1)NC(=O)[C@H](CC(=O)O)NC(=O)[C@H](CC1CCCCC1)NC(=O)Cc1ccccc1 (PhAc-[Cha]DF[dP]-NH2)	217	–
CC[C@H](C)[C@H](NC(=O)[C@H](CCC(=O)O)NC(=O)[C@@H]1CCCN1C(=O)CNC(=O)[C@H](Cc1c[nH]cn1)NC(=O)[C@H](CC(C)C)NC(=O)[C@H](CC(N)=O)NC(=O)[C@@H]1CCCN1C(=O)[C@H](Cc1c[nH]cn1)NC(=O)[C@@H]1CCCN1C(=O)[C@H](CC(C)C)NC(=O)[C@@H](NC(=O)[C@@H](NC(=O)[C@H](CC(C)C)NC(=O)[C@H](CCC(N)=O)NC(=O)[C@@H]1CCCN1C(=O)[C@H](CC(C)C)NC(=O)[C@H](CCC(=O)O)NC(=O)[C@@H](N)CC(=O)O)C(C)C)[C@@H](C)O)C(=O)N[C@@H](CC(C)C)C(=O)N[C@@H](CC(=O)O)C(=O)N[C@H](C(=O)N1CCC[C@H]1C(=O)N[C@@H](CO)C(=O)N[C@H](C(=O)O)[C@@H](C)O)C(C)C [CS-1 peptide, reference compound] (H-DELPQLVTLPHPNLHGPEILDVPST-OH)	–	binding inhibition (in words) (compared to standard 10-mer / B12): three times more potent
CC(=O)N[C@@H](CC(C)C)C(=O)N[C@@H](CC(=O)O)C(=O)N[C@@H](Cc1ccccc1)C(N)=O [L D F acetyl amide] (Ac-Leu-Asp-Phe-NH2)	–	RELATIVE POTENCY (inhibition of VLA-4 binding CS-1): 0
